Laboratory results as given in ChEMBL document CHEMBL5625270, “Targeting ATP-binding site of WRN Helicase: Identification of novel inhibitors through pocket analysis and Molecular Dynamics-Enhanced virtual screening” (Bioorg Med Chem Lett, 2024).
pIC50: −log10 of the molar value. Activity calls are given as the source filed them. The calls are words filed in the database; no cut-off is given here.

How the values were obtained:
[1] = biological target: RecQ-like DNA helicase BLM (Homo sapiens, UniProt P54132); assay: Inhibition of BLM (unknown origin) ATPase activity
RecQ-like DNA helicase BLM, sequence (P54132 whole entry): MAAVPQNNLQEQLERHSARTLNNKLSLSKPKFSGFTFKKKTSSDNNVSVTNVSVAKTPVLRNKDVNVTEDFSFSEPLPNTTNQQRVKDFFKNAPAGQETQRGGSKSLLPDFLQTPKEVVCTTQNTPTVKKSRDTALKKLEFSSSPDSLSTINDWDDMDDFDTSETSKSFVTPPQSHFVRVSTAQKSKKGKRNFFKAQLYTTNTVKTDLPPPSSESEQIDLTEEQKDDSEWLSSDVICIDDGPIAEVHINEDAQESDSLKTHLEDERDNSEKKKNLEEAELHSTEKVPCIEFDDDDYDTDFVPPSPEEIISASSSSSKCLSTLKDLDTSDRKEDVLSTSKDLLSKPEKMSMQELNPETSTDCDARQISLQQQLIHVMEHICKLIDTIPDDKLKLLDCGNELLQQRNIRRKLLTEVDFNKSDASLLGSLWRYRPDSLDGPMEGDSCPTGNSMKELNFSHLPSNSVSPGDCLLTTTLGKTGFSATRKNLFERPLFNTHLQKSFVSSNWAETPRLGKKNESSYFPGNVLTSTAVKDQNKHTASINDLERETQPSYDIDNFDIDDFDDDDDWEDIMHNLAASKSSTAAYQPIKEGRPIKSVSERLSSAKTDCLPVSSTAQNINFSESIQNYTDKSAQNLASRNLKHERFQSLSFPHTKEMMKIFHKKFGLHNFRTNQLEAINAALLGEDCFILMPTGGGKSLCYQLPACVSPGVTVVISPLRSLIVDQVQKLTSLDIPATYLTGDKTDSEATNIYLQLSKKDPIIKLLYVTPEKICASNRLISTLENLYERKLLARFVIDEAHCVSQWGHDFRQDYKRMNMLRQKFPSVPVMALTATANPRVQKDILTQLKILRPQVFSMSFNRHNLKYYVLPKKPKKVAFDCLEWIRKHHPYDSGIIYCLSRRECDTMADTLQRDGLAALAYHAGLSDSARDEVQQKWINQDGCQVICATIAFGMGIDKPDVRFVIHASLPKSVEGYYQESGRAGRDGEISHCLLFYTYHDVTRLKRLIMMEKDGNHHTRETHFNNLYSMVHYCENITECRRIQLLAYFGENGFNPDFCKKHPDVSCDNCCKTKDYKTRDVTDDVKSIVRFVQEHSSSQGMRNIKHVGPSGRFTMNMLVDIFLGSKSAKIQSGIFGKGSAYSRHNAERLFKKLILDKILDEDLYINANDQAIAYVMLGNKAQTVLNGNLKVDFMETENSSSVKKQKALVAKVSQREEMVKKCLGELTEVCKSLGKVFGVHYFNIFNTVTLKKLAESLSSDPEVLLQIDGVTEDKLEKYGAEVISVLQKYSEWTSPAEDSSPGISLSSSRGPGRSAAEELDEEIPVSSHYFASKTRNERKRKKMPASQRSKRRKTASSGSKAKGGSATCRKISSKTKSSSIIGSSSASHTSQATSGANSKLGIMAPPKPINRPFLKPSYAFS

[2] = biological target: T1, Eukaryotic initiation factor 4A-I (Homo sapiens, UniProt P60842); assay: Inhibition of eIF4A (unknown origin) ATPase activity within 200 uM
T1 sequence (P60842 whole entry): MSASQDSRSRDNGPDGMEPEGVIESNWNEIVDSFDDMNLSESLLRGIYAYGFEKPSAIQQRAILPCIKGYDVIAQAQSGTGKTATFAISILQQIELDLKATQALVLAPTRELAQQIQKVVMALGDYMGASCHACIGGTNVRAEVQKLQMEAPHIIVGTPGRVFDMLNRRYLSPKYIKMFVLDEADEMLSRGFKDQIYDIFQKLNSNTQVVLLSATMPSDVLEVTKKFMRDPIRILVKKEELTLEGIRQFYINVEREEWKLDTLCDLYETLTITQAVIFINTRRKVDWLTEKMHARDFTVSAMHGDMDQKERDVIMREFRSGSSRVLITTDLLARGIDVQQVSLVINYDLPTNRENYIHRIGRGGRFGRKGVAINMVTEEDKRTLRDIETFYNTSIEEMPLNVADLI

[3] = biological target: T2, Bifunctional 3'-5' exonuclease/ATP-dependent helicase WRN (Homo sapiens, UniProt Q14191); assay: Inhibition of recombinant human WRN unwinding activity by immunosorbent-based helicase unwinding assay
T2 sequence (Q14191 whole entry): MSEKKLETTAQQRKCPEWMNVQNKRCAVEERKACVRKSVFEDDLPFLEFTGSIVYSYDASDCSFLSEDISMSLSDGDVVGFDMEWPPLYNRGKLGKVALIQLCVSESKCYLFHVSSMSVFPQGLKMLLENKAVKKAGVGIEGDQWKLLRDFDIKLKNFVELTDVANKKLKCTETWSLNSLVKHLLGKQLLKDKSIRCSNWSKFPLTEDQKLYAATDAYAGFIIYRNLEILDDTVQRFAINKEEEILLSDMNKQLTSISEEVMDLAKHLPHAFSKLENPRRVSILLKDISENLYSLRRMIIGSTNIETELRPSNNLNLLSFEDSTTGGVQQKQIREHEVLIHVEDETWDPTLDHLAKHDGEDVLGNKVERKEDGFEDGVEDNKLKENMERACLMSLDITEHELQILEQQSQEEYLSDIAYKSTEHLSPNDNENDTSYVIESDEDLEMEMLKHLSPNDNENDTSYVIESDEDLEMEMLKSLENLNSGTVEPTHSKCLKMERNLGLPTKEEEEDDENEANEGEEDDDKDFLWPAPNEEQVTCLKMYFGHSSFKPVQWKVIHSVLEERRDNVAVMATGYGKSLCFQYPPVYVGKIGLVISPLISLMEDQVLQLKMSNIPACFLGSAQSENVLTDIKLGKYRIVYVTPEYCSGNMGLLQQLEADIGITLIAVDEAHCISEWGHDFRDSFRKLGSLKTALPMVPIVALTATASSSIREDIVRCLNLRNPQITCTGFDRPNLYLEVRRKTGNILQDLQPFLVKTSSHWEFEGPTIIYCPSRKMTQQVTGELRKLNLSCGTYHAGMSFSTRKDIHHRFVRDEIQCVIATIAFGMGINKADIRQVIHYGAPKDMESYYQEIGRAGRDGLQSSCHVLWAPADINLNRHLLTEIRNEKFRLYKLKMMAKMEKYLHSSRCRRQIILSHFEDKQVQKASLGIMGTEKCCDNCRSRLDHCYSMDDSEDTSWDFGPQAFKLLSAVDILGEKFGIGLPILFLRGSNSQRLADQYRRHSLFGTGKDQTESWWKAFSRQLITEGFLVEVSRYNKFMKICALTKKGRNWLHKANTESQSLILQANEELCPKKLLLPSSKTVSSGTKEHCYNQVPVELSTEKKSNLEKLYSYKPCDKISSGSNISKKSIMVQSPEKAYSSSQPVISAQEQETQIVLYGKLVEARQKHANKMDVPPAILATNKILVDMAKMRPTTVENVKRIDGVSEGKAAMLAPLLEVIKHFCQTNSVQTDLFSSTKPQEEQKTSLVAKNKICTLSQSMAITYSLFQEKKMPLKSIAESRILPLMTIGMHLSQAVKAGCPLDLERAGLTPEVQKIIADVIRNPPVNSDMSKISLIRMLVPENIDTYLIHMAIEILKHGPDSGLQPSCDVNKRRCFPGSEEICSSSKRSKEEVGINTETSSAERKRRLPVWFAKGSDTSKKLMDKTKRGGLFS

[4] = biological target: T2, Bifunctional 3'-5' exonuclease/ATP-dependent helicase WRN; assay: Inhibition of WRN (unknown origin) ATPase activity
[5] = system: Microsatellite instability cancer cell; assay: Cytotoxicity against Microsatellite instability cancer cell (unknown origin); assay type: functional, cell-based
[6] = Inhibition of HSP90 (unknown origin) ATPase activity; set-up: species or system Homo sapiens
[7] = biological target: T2, Bifunctional 3'-5' exonuclease/ATP-dependent helicase WRN; assay: Inhibition of WRN (unknown origin)
[8] = organism: Homo sapiens; assay: Inhibition of HSP90 (unknown origin) ATPase activity within 200 uM
[9] = biological target: T1, Eukaryotic initiation factor 4A-I; assay: Inhibition of eIF4A (unknown origin) ATPase activity
[10] = biological target: T1, Eukaryotic initiation factor 4A-I; assay: Inhibition of eIF4A (unknown origin) ATPase activity at <200 uM
[11] = organism: Homo sapiens; assay: Inhibition of HSP90 (unknown origin) ATPase activity at <200 uM

SMILES | pIC50 [1] | inhibition [2] | pIC50 [3] | pIC50 [4] | Activity [5] | pIC50 [6] | pIC50 [7] | inhibition [8] | pIC50 [9] | inhibition [10] | inhibition [11]
Cc1ccc(NC(=O)CN2C(=O)N/C(=C/c3ccccc3OCc3cccc(C(=O)O)c3)C2=O)cc1 | 4.58 | inactive | 5.01 | 4.80 | inactive | 4.32 |  |  |  |  | 
COc1ccc2nc(O)c(-c3noc(-c4ccc(F)cc4)n3)cc2c1 |  |  |  |  |  |  | 4.89 |  |  |  | 
CC(C)(CN1C(=O)C(Cl)=C(Cl)C1=O)CN1C(=O)C(Cl)=C(Cl)C1=O | 4.95 | inactive |  | 4.05 |  |  | 6.64 | inactive |  |  | 
CCC(=O)OCN1C(=O)C=CC1=O | 5.80 |  |  | 4.98 |  |  |  | inactive | < 3.70 | Active | 
COc1ccc2nc(O)c(-c3noc(-c4ccccc4)n3)cc2c1 |  |  |  |  |  |  | 5.64 |  |  |  | 
O=C1/C(=C2\Nc3ccc(S(=O)(=O)O)cc3C2=O)Nc2ccc(S(=O)(=O)O)cc21 [INDIGOTINDISULFONATE] | 5.48 |  | 6.70 | 5.30 |  | < 3.70 |  |  | < 3.70 | Active | Active
